# Test results taken from paper PMC6105164 (Cancer Chemotherapy and Pharmacology, 2018).
# Entries after “also recorded” stand apart in the source; their conditions may differ.
# Columns and labels:
# [1] = Urine concentration of Salirasib (LC-MS/MS), day 1; assay type: in vivo, human; conditions: within 24 h, any dosing group (200, 600, 1000 mg sampled)
# Method: Blood samples were collected 10 times on day 1 (before drug administration, and 0.5-, 1-, 1.5-, 2-, 4-, 6-, 8-, 12-, and 24-h post-administration), once on days 4, 7, and 14, and 9 times on day 21 (before morning dose, and 0.5, 1, 1.5, 2, 4, 6, 8, and 12 h after morning dose but before evening dose). Urine samples were collected from patients who received 200, 600, or 1000 mg on day 1 (before drug administration, and 0–6-, 6–12-, 12–24-h post-administration).
# RAS-mutated patients = conditions: previous phase I/II trials in the USA; cited from earlier work
# US patients = conditions: cited from earlier work
# [2] = tested on: relapsed/refractory solid tumors; assay: Exploratory evaluation of efficacy (RECIST); assay type: in vivo, human; conditions: for Number of cycles completed, Median / Number of cycles completed, Range: completed = ≥ 60% of planned treatment
# Excerpt: Treatment was immediately terminated at the patient’s request when DLT occurred; the study physician decided that continuation was inappropriate because of AEs; or if the tumor was classified as progressive disease (PD) according to the Response Evaluation Criteria in Solid Tumor (RECIST) Guideline. In cases of DLT, patients were allowed to continue the regimen with dose adjustments upon providing written agreement. At the end of the regimen, patients were allowed to repeat the same regimen if all of the following criteria were met: no DLT occurred; the tumor was not determined as PD; the study physicians agreed; and the patient provided written informed consent. […] Diagnostic imaging using computed tomography, magnetic resonance imaging (MRI), fluorodeoxyglucose-positron emission tomography (PET), and/or bone scintigraphy was performed depending on the tumors and clinical symptoms on day 22 of first and repeated regimens or at discontinuation. Specific tumor markers (e.g., carcinoembryonic antigen for colorectal cancer and prostate-specific antigen for prostate cancer) were measured on day 22 of first and repeated regimens or at discontinuation. Based on the information obtained, the efficacy was scored in accordance with the RECIST guideline.
# [3] = tested on: Japanese patients with relapsed/refractory solid tumors; assay: Safety: dose-limiting toxicity and adverse events (NCI-CTCAE v.4.0); assay type: in vivo, human; conditions: for Death: first and repeated regimens
# Excerpt: Treatment was immediately terminated at the patient’s request when DLT occurred; the study physician decided that continuation was inappropriate because of AEs; or if the tumor was classified as progressive disease (PD) according to the Response Evaluation Criteria in Solid Tumor (RECIST) Guideline. In cases of DLT, patients were allowed to continue the regimen with dose adjustments upon providing written agreement.
# Patients were registered when up to three patients received ≥ 60% of planned treatment in the regimen before DLT was evaluated for dose escalation. […] According to the DLT and pharmacokinetics data obtained by a given time, the recommended dose was determined and additional three patients were added to the dosing group a posteriori.
# To evaluate the safety, vital signs (systolic and diastolic blood pressure, pulse rate, body temperature, and body weight), 12-lead electrocardiogram, clinical laboratory tests, chest X-ray, and performance status [Eastern Cooperative Oncology Group (ECOG)] were evaluated on predefined dates (Supplemental Table S1). Examined items in the clinical laboratory tests are listed in Supplemental Table S2.
# AEs were graded in accordance with NCI-CTCAE v.4.0 and recorded. The study physicians determined whether the AEs were drug-related and recorded.
# [4] = 800 mg twice-daily, for one patient days until withdrawal were counted
# [5] = 800 mg twice-daily, two patients not evaluated
# [6] = patients with KRAS mutations (4 patients)
structure (smiles),measurement,setting,value
"CC(C)=CCC/C(C)=C/CC/C(C)=C/CSc1ccccc1C(=O)O [Salirasib, S-trans, trans-farnesylthiosalicylic acid]",excretion in urine,[1],not excreted in urine
same,efficacy in RAS-mutated patients,RAS-mutated patients,not conclusive
same,tolerability,RAS-mutated patients,good tolerability
same,drug-related AEs,US patients; US patients on 800-mg regimen,all patients on 800-mg regimen experienced drug-related AEs
same,Dose-limiting toxicity (DLT),"US patients; phase I trial in the US patients, up to 800 mg",no DLT was observed up to 800 mg
same,Disease control rate (DCR): CR + PR + SD,[2]; 100 mg twice-daily,1 (33.3) N (%)
same,Objective response rate (ORR): CR + PR,[2]; 100 mg twice-daily,0 (0.0) N (%)
same,"Progression-free survival, Median",[2]; 100 mg twice-daily,22 days
same,"Progression-free survival, Range",[2]; 100 mg twice-daily,16 to 53 days
same,Response rate: Complete response (CR),[2]; 100 mg twice-daily,0 (0.0) N (%)
same,Response rate: Partial response (PR),[2]; 100 mg twice-daily,0 (0.0) N (%)
same,Response rate: Progressive disease (PD),[2]; 100 mg twice-daily,2 (66.7) N (%)
same,"Number of cycles completed, Median",[2]; 100 mg twice-daily,1
same,"Number of cycles completed, Range",[2]; 100 mg twice-daily,1–2
same,Disease control rate (DCR): CR + PR + SD,[2]; 200 mg twice-daily,3 (100.0) N (%)
same,Objective response rate (ORR): CR + PR,[2]; 200 mg twice-daily,0 (0.0) N (%)
same,"Progression-free survival, Median",[2]; 200 mg twice-daily,213 days
same,"Progression-free survival, Range",[2]; 200 mg twice-daily,57 to 373 days
same,Response rate: Complete response (CR),[2]; 200 mg twice-daily,0 (0.0) N (%)
same,Response rate: Partial response (PR),[2]; 200 mg twice-daily,0 (0.0) N (%)
same,Response rate: Progressive disease (PD),[2]; 200 mg twice-daily,0 (0.0) N (%)
same,"Number of cycles completed, Median",[2]; 200 mg twice-daily,7
same,"Number of cycles completed, Range",[2]; 200 mg twice-daily,2–13
same,Disease control rate (DCR): CR + PR + SD,[2]; 400 mg twice-daily,2 (66.7) N (%)
same,Objective response rate (ORR): CR + PR,[2]; 400 mg twice-daily,0 (0.0) N (%)
same,"Progression-free survival, Median",[2]; 400 mg twice-daily,56 days
same,"Progression-free survival, Range",[2]; 400 mg twice-daily,22 to 91 days
same,Response rate: Complete response (CR),[2]; 400 mg twice-daily,0 (0.0) N (%)
same,Response rate: Partial response (PR),[2]; 400 mg twice-daily,0 (0.0) N (%)
same,Response rate: Progressive disease (PD),[2]; 400 mg twice-daily,1 (33.3) N (%)
same,"Number of cycles completed, Median",[2]; 400 mg twice-daily,2
same,"Number of cycles completed, Range",[2]; 400 mg twice-daily,1–3
same,Disease control rate (DCR): CR + PR + SD,[2]; 600 mg twice-daily,2 (66.7) N (%)
same,Objective response rate (ORR): CR + PR,[2]; 600 mg twice-daily,0 (0.0) N (%)
same,"Progression-free survival, Median",[2]; 600 mg twice-daily,135 days
same,"Progression-free survival, Range",[2]; 600 mg twice-daily,79 to 319 days
same,Response rate: Complete response (CR),[2]; 600 mg twice-daily,0 (0.0) N (%)
same,Response rate: Partial response (PR),[2]; 600 mg twice-daily,0 (0.0) N (%)
same,Response rate: Progressive disease (PD),[2]; 600 mg twice-daily,1 (33.3) N (%)
same,"Number of cycles completed, Median",[2]; 600 mg twice-daily,5
same,"Number of cycles completed, Range",[2]; 600 mg twice-daily,3–11
same,"Number of cycles completed, Median",[2]; 800 mg twice-daily,1
same,"Number of cycles completed, Range",[2]; 800 mg twice-daily,1–11
same,"Progression-free survival, Median",[2]; [4],29 days
same,"Progression-free survival, Range",[2]; [4],22 to 307 days
same,Disease control rate (DCR): CR + PR + SD,[2]; [5],1 (16.7) N (%)
same,Objective response rate (ORR): CR + PR,[2]; [5],0 (0.0) N (%)
same,Response rate: Complete response (CR),[2]; [5],0 (0.0) N (%)
same,Response rate: Partial response (PR),[2]; [5],0 (0.0) N (%)
same,Response rate: Progressive disease (PD),[2]; [5],3 (50.0) N (%)
same,Disease control rate (DCR): CR + PR + SD,[2]; 1000 mg twice-daily,1 (33.3) N (%)
same,Objective response rate (ORR): CR + PR,[2]; 1000 mg twice-daily,0 (0.0) N (%)
same,"Progression-free survival, Median",[2]; 1000 mg twice-daily,22 days
same,"Progression-free survival, Range",[2]; 1000 mg twice-daily,22 to 91 days
same,Response rate: Complete response (CR),[2]; 1000 mg twice-daily,0 (0.0) N (%)
same,Response rate: Partial response (PR),[2]; 1000 mg twice-daily,0 (0.0) N (%)
same,Response rate: Progressive disease (PD),[2]; 1000 mg twice-daily,2 (66.7) N (%)
same,"Number of cycles completed, Median",[2]; 1000 mg twice-daily,1
same,"Number of cycles completed, Range",[2]; 1000 mg twice-daily,1–3
same,Disease control rate (DCR): CR + PR + SD,"[2]; Total, all dose groups",10 (47.6) N (%)
same,Objective response rate (ORR): CR + PR,"[2]; Total, all dose groups",0 (0.0) N (%)
same,"Progression-free survival, Median","[2]; Total, all dose groups",53 days
same,"Progression-free survival, Range","[2]; Total, all dose groups",16 to 373 days
same,Response rate: Complete response (CR),"[2]; Total, all dose groups",0 (0.0) N (%)
same,Response rate: Partial response (PR),"[2]; Total, all dose groups",0 (0.0) N (%)
same,Response rate: Progressive disease (PD),"[2]; Total, all dose groups",9 (42.9) N (%)
same,"Number of cycles completed, Median","[2]; Total, all dose groups",2
same,"Number of cycles completed, Range","[2]; Total, all dose groups",1–13
same,"complete response (CR) or partial response (PR), in words","[2]; all patients, during the trial",Neither complete response (CR) nor partial response (PR) was found; also recorded: no patients showed CR or PR
same,patients who repeated the regimen,[2]; of 21 patients,11 patients
same,"Progression-free survival, Range",[2]; [6],79 to 373 days
same,median progression-free survival,[2]; [6],227 days
same,"number of cycles, median",[2]; [6],8 cycles
same,"number of cycles, range",[2]; [6],3–13 cycles
same,Death,[3]; 100 mg twice-daily,0 (0.0) N (%)
same,Death,[3]; 200 mg twice-daily,0 (0.0) N (%)
same,Death,[3]; 400 mg twice-daily,0 (0.0) N (%)
same,Death,[3]; 600 mg twice-daily,0 (0.0) N (%)
same,Death,[3]; 800 mg twice-daily,0 (0.0) N (%)
same,Death,[3]; 1000 mg twice-daily,0 (0.0) N (%)
same,Death,"[3]; Total, all dose groups",0 (0.0) N (%)
same,"deaths during the treatment period, in words",[3]; all dose groups,No patients died
same,AEs observed at grade ≥ 3: ALP increased,"[3]; human, in vivo",3 (14.3) N (%)
same,AEs observed at grade ≥ 3: AST increased,"[3]; human, in vivo",1 (4.8) N (%)
same,AEs observed at grade ≥ 3: Amylase increased,"[3]; human, in vivo",1 (4.8) N (%)
same,AEs observed at grade ≥ 3: Anemia,"[3]; human, in vivo",2 (9.5) N (%)
same,AEs observed at grade ≥ 3: Ascites,"[3]; human, in vivo",1 (4.8) N (%)
same,AEs observed at grade ≥ 3: Bilirubin increased,"[3]; human, in vivo",1 (4.8) N (%)
same,AEs observed at grade ≥ 3: Cancer pain,"[3]; human, in vivo",1 (4.8) N (%)
same,AEs observed at grade ≥ 3: Cholestatic jaundice,"[3]; human, in vivo",1 (4.8) N (%)
same,AEs observed at grade ≥ 3: Decreased appetite,"[3]; human, in vivo",1 (4.8) N (%)
same,AEs observed at grade ≥ 3: Diarrhea,"[3]; human, in vivo",2 (9.5) N (%)
same,AEs observed at grade ≥ 3: Hemoglobin decreased,"[3]; human, in vivo",2 (9.5) N (%)
same,AEs observed at grade ≥ 3: Hypercalcemia,"[3]; human, in vivo",1 (4.8) N (%)
same,AEs observed at grade ≥ 3: Hyponatremia,"[3]; human, in vivo",2 (9.5) N (%)
same,AEs observed at grade ≥ 3: Hypophosphatemia,"[3]; human, in vivo",1 (4.8) N (%)
same,AEs observed at grade ≥ 3: Lymphopenia,"[3]; human, in vivo",1 (4.8) N (%)
same,AEs observed at grade ≥ 3: Troponin T increased,"[3]; human, in vivo",1 (4.8) N (%)
same,AEs observed at grade ≥ 3: γ-GTP increased,"[3]; human, in vivo",3 (14.3) N (%)
same,AEs observed in ≥ 3 patients: Abdominal pain,"[3]; human, in vivo",6 (28.6) N (%)
same,AEs observed in ≥ 3 patients: Decreased appetite,"[3]; human, in vivo",9 (42.9) N (%)
same,AEs observed in ≥ 3 patients: Diarrhea,"[3]; human, in vivo",18 (85.7) N (%)
same,AEs observed in ≥ 3 patients: Nausea,"[3]; human, in vivo",6 (28.6) N (%)
same,AEs observed in ≥ 3 patients: Vomiting,"[3]; human, in vivo",4 (19.0) N (%)
same,All AEs,"[3]; human, in vivo",21 (100) N (%)
same,All drug-related AEs,"[3]; human, in vivo",19 (90.5) N (%)
same,Discontinuation because of AEs,"[3]; human, in vivo",0 (0.0) N (%)
same,Discontinuation because of drug-related AEs,"[3]; human, in vivo",0 (0.0) N (%)
same,Dose-limiting toxicity (DLT),"[3]; human, in vivo",0 (0.0) N (%)
same,Patients with AEs of grade ≥ 3,"[3]; human, in vivo",9 (42.9) N (%)
same,Patients with drug-related AEs of grade ≥ 3,"[3]; human, in vivo",4 (19.0) N (%)
same,Serious AEs,"[3]; human, in vivo",1 (4.8) N (%)
same,Serious drug-related AEs,"[3]; human, in vivo",0 (0.0) N (%)
same,patients in whom AEs were observed,"[3]; human, in vivo",21 patients
same,dose considered safe and tolerable,"[3]; human, in vivo, 28 days",up to 1000 mg
same,"AEs of grade ≥ 3, in words",[3]; in vivo,not observed
same,"Dose-limiting toxicity (DLT), in words",[3]; in vivo,no DLT was observed
same,maximum tolerable dose,[3]; in vivo,No maximum tolerable dose was discerned
same,"patients with drug-related AEs, in words",[3]; in vivo,in all patients except two
same,"serious AE, in words",[3]; in vivo,One serious AE (ascites)
